The target in assay [1] is T1, β-secretase II (BACE2) (Homo sapiens, UniProt Q9Y5Z0).
T1 sequence (Q9Y5Z0 63-518): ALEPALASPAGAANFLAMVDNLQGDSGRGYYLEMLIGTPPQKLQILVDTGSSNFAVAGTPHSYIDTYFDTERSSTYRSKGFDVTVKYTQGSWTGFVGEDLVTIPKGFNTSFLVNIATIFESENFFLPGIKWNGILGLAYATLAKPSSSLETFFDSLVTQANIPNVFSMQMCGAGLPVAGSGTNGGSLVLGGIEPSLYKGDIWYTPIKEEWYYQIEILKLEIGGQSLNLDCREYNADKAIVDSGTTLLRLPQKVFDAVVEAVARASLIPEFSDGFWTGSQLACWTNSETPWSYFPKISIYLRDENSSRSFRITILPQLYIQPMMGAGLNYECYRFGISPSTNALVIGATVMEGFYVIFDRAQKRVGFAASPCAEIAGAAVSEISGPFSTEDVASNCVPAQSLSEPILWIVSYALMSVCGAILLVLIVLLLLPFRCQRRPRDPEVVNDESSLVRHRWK
Description: Automated (CyclOps) biochemical assay BACE2.

Assay [2] concerns the target β-secretase I (BACE1) (Homo sapiens, UniProt P56817). Description: Automated (CyclOps) biochemical assay BACE1.

β-secretase I (BACE1), sequence (P56817 46-501): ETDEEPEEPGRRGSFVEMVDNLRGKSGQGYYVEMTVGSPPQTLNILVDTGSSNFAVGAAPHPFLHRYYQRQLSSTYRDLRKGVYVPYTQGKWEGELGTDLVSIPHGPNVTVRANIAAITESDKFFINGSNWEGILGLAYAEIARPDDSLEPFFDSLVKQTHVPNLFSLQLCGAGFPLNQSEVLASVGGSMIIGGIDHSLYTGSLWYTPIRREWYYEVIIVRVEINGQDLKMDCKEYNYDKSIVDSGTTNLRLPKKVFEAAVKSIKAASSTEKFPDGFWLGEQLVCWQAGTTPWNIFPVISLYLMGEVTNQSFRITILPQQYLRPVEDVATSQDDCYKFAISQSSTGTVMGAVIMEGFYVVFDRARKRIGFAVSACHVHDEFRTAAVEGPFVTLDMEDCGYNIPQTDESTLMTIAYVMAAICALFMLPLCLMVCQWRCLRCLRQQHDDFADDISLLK

For the molecule `COc1ncc(C(=O)N2CCN(c3nccs3)CC2)c2c1C[C@]1(c3ccc(F)cc3F)N=C(N)SC[C@@H]1C2` [Compound 7], the IC50 is 0.871 µM in assay [1] and 0.324 µM in assay [2].
On the same counts, the results for `COc1ncc(C(=O)N2CCN(c3cccnc3)CC2)c2c1C[C@]1(c3ccc(F)cc3F)N=C(N)SC[C@@H]1C2` [Compound 5] are 0.324 µM and 0.145 µM.
The corresponding values for `COc1ncc(CNC(=O)c2cccnc2F)c2c1C[C@]1(c3ccc(F)cc3F)N=C(N)SC[C@@H]1C2` [Compound 43] are 0.0977 µM and 0.0209 µM.
The corresponding values for `COc1ncccc1C(=O)NCc1cnc(OC)c2c1C[C@H]1CSC(N)=N[C@@]1(c1ccc(F)cc1F)C2` [Compound 47] are 0.209 µM and 0.0257 µM.
Take `COc1ncc(C(=O)N2C[C@H]3CC[C@@H](C2)O3)c2c1C[C@]1(c3ccc(F)cc3F)N=C(N)SC[C@@H]1C2` [Compound 19]: the IC50 was 0.117 µM in assay [1] and 0.0186 µM in assay [2].
The corresponding values for `COc1ncc(C(=O)N2CCN(c3ccncc3)CC2)c2c1C[C@]1(c3ccc(F)cc3F)N=C(N)SC[C@@H]1C2` [Compound 17] are 2.37 µM and 0.158 µM.
The corresponding values for `COc1ncc(C(=O)N2Cc3cccnc3C2)c2c1C[C@]1(c3ccc(F)cc3F)N=C(N)SC[C@@H]1C2` [Compound 8] are 3.55 µM and 1 µM.
Turning to `COc1ncc(C(=O)N2CCOC(c3cccc(C)c3)C2)c2c1C[C@]1(c3ccc(F)cc3F)N=C(N)SC[C@@H]1C2` (stereo partly shown) [Compound 13], the figures for the half-inhibitory concentration (IC50) in assay [1] and in assay [2] were 0.309 µM and 0.0692 µM, respectively.
On the same counts, the results for `COc1ncc(CNC(=O)CN2CCOCC2)c2c1C[C@]1(c3ccc(F)cc3F)N=C(N)SC[C@@H]1C2` [Compound 44] are 0.0794 µM and 0.0417 µM.
On the same counts, the results for `COc1ncc(C(=O)N(C)Cc2ccncc2)c2c1C[C@]1(c3ccc(F)cc3F)N=C(N)SC[C@@H]1C2` [Compound 18] are 0.0302 µM and 0.00851 µM.
For the molecule `COc1ncc(CNC(=O)c2cnoc2C(C)C)c2c1C[C@]1(c3ccc(F)cc3F)N=C(N)SC[C@@H]1C2` [Compound 42], the IC50 in assay [1] was 0.138 µM; in assay [2], 0.0741 µM.
On the same counts, the results for `COc1ncc(CNC(=O)c2cccnc2)c2c1C[C@]1(c3ccc(F)cc3F)N=C(N)SC[C@@H]1C2` [Compound 45] are 0.0295 µM and 0.00851 µM.
As to `COc1ncc(CNC(=O)c2ccncc2C(F)(F)F)c2c1C[C@]1(c3ccc(F)cc3F)N=C(N)SC[C@@H]1C2` [Compound 35], the results for the IC50 in assay [1] and in assay [2] were 0.724 µM and 0.138 µM, respectively.
On the same counts, the results for `COc1cc(OC)nc(C(=O)NCc2cnc(OC)c3c2C[C@H]2CSC(N)=N[C@@]2(c2ccc(F)cc2F)C3)n1` [Compound 49] are 0.178 µM and 0.0347 µM.
On to `COc1ncc(CNC(=O)c2cccnc2C)c2c1C[C@]1(c3ccc(F)cc3F)N=C(N)SC[C@@H]1C2` [Compound 40], for which the IC50 in assay [1] was 0.186 µM; in assay [2], 0.112 µM.
For the molecule `COc1cccc(C2CCN(C(=O)c3cnc(OC)c4c3C[C@H]3CSC(N)=N[C@@]3(c3ccc(F)cc3F)C4)C2)c1` (single isomer, unassigned) [Compound 25], the IC50 in assay [1] was 0.0881 µM; in assay [2], 0.0148 µM.
On the same counts, the results for `COCC1CCN(C(=O)c2cnc(OC)c3c2C[C@H]2CSC(N)=N[C@@]2(c2ccc(F)cc2F)C3)CC1` [Compound 11] are 0.776 µM and 0.155 µM.
On to `COc1ncc(C(=O)N2CCC(C#N)C2)c2c1C[C@]1(c3ccc(F)cc3F)N=C(N)SC[C@@H]1C2` (stereo partly shown) [Compound 6], for which the IC50 in assay [1] was 0.282 µM; in assay [2] it was 0.0562 µM.
Consider `COc1cccc(N2CCN(C(=O)c3cnc(OC)c4c3C[C@H]3CSC(N)=N[C@@]3(c3ccc(F)cc3F)C4)CC2)c1` [Compound 24], for which the results for the IC50 in assay [1] and in assay [2] were 0.0631 µM and 0.0617 µM, respectively.
The corresponding values for `COc1ncc(C(=O)N2CCCC(OC)C2)c2c1C[C@]1(c3ccc(F)cc3F)N=C(N)SC[C@@H]1C2` (stereo partly shown) [Compound 23] are 0.324 µM and 0.0617 µM.
The corresponding values for `COc1ncc(CNC(=O)c2ccncc2F)c2c1C[C@]1(c3ccc(F)cc3F)N=C(N)SC[C@@H]1C2` [Compound 38] are 0.115 µM and 0.0191 µM.
The corresponding values for `COc1ncc(CNC(=O)c2ccncn2)c2c1C[C@]1(c3ccc(F)cc3F)N=C(N)SC[C@@H]1C2` [Compound 50] are 0.309 µM and 0.115 µM.
Turning to `COc1ncc(CNC(=O)c2ccc(C#N)cc2)c2c1C[C@]1(c3ccc(F)cc3F)N=C(N)SC[C@@H]1C2` [Compound 33], the IC50 was 0.178 µM in assay [1] and 0.0575 µM in assay [2].
On the same counts, the results for `COc1ncc(C(=O)N2CC(C)OC(C)C2)c2c1C[C@]1(c3ccc(F)cc3F)N=C(N)SC[C@@H]1C2` (stereo partly shown) [Compound 9] are 2.14 µM and 0.363 µM.
On the same counts, the results for `COc1ncc(CNC(=O)c2ncc(F)cc2F)c2c1C[C@]1(c3ccc(F)cc3F)N=C(N)SC[C@@H]1C2` [Compound 37] are 0.0708 µM and 0.0251 µM.
Turning to `COc1ccccc1C(=O)NCc1cnc(OC)c2c1C[C@H]1CSC(N)=N[C@@]1(c1ccc(F)cc1F)C2` [Compound 34], the IC50 in assay [1] is 0.537 µM; in assay [2] it was 0.219 µM.
On the same counts, the results for `COc1ncc(C(=O)N2CCN(C(=O)C3CC3)CC2)c2c1C[C@]1(c3ccc(F)cc3F)N=C(N)SC[C@@H]1C2` [Compound 10] are 1.45 µM and 0.49 µM.
On the same counts, the results for `COc1ncc(C(=O)N2CCCCC2)c2c1C[C@]1(c3ccc(F)cc3F)N=C(N)SC[C@@H]1C2` [Compound 20] are 0.195 µM and 0.0501 µM.
On the same counts, the results for `COc1ncc(C(=O)N(C)c2ccncc2)c2c1C[C@]1(c3ccc(F)cc3F)N=C(N)SC[C@@H]1C2` [Compound 21] are 0.324 µM and 0.112 µM.
Regarding `COc1ncc(C(=O)N2CCC(Oc3ccc(F)cc3)CC2)c2c1C[C@]1(c3ccc(F)cc3F)N=C(N)SC[C@@H]1C2` [Compound 14], the results for the IC50 in assay [1] and in assay [2] were 0.0389 µM and 0.011 µM, respectively.
Consider `COc1ncc(C(=O)N2CCN(C(C)=O)CC2)c2c1C[C@]1(c3ccc(F)cc3F)N=C(N)SC[C@@H]1C2` [Compound 27], for which the IC50 was 4.17 µM in assay [1] and 0.955 µM in assay [2].
On the same counts, the results for `CCOc1ncccc1C(=O)NCc1cnc(OC)c2c1C[C@H]1CSC(N)=N[C@@]1(c1ccc(F)cc1F)C2` [Compound 46] are 0.407 µM and 0.0363 µM.
The corresponding values for `COc1ncc(C(=O)N2CCS(=O)(=O)CC2)c2c1C[C@]1(c3ccc(F)cc3F)N=C(N)SC[C@@H]1C2` [Compound 12] are 0.832 µM and 0.501 µM.
On the same counts, the results for `COc1cccc(C(=O)NCc2cnc(OC)c3c2C[C@H]2CSC(N)=N[C@@]2(c2ccc(F)cc2F)C3)n1` [Compound 39] are 0.389 µM and 0.182 µM.
Turning to `COc1cc(C(=O)NCc2cnc(OC)c3c2C[C@H]2CSC(N)=N[C@@]2(c2ccc(F)cc2F)C3)c(OC)nn1` [Compound 41], the IC50 in assay [1] was 0.513 µM; in assay [2], 0.0794 µM.
With `COc1ncc(C(=O)Nc2ccncc2)c2c1C[C@]1(c3ccc(F)cc3F)N=C(N)SC[C@@H]1C2` [Compound 16], the IC50 in assay [1] is 0.138 µM; in assay [2], 0.0537 µM.
The corresponding values for `COc1ncc(CNC(=O)c2cnc(C(F)(F)F)nc2)c2c1C[C@]1(c3ccc(F)cc3F)N=C(N)SC[C@@H]1C2` [Compound 36] are 0.0363 µM and 0.0219 µM.
On the same counts, the results for `COc1ncc(C(=O)N2CCC(c3ccncc3)C2)c2c1C[C@]1(c3ccc(F)cc3F)N=C(N)SC[C@@H]1C2` (stereo partly shown) [Compound 26] are 0.507 µM and 0.0157 µM.

The term IC50 denotes the concentration at which inhibition is half-maximal. Read a low IC50 as higher potency.

The values above are taken from patent US20190389882A1, “INHIBITORS OF BETA SECRETASE” (Janssen Pharmaceutica NV, priority 2017, published 2019).
